Paper PMC10439952, “JT002, a small molecule inhibitor of the NLRP3 inflammasome for the treatment of autoinflammatory disorders” (Scientific Reports, 2023)
pIC50: −log10 of the molar value.

Biological target: NLRP3 inflammasome (Mus musculus, UniProt Q8R4B8)
Test: Inhibition of IL-1β production in LPS + ATP stimulated mouse whole blood
Type: cell-based
Protocol: Inflammasome activation and whole blood assays were essentially carried out as described earlier. Details can be found in the supplementary information section accompanying this publication. A protocol for blood draws from healthy volunteers and use of the blood in preclinical assays was approved by Western Institutional Review Board, Inc (Puyallup, WA, USA). Informed consent was obtained from each donor prior to the first blood draw.
Cell viability was determined by addition of an equal volume of CellTiter-Glo® 2.0 reagent (Promega) to the remaining cells/supernatant in each well. Intracellular Caspase-1 activity was measured using the Caspase-Glo® assay (Promega) according to the manufacturer’s instructions. The biochemical capsase-1 assay was conducted at Reaction Biology Corporation (Malvern, USA). Human IL-1β, IL-1α, and TNFα and mouse IL-1β were measured in cell culture supernatants using homogeneous time resolved fluorescence assay kits (HTRF, Cisbio, Codolet, France). Human IL-18 was measured in cell culture supernatants using an ELISA kit (R&D Systems, Minneapolis, MN, USA). Plasma IL-1β concentrations were determined by Quantikine® ELISA (R&D Systems, Minneapolis, MN). […]
flagellin, prepared in Opt iMEM and combined with Lipofectamine 2000. […]

NLRP3 inflammasome, sequence (Q8R4B8 whole entry): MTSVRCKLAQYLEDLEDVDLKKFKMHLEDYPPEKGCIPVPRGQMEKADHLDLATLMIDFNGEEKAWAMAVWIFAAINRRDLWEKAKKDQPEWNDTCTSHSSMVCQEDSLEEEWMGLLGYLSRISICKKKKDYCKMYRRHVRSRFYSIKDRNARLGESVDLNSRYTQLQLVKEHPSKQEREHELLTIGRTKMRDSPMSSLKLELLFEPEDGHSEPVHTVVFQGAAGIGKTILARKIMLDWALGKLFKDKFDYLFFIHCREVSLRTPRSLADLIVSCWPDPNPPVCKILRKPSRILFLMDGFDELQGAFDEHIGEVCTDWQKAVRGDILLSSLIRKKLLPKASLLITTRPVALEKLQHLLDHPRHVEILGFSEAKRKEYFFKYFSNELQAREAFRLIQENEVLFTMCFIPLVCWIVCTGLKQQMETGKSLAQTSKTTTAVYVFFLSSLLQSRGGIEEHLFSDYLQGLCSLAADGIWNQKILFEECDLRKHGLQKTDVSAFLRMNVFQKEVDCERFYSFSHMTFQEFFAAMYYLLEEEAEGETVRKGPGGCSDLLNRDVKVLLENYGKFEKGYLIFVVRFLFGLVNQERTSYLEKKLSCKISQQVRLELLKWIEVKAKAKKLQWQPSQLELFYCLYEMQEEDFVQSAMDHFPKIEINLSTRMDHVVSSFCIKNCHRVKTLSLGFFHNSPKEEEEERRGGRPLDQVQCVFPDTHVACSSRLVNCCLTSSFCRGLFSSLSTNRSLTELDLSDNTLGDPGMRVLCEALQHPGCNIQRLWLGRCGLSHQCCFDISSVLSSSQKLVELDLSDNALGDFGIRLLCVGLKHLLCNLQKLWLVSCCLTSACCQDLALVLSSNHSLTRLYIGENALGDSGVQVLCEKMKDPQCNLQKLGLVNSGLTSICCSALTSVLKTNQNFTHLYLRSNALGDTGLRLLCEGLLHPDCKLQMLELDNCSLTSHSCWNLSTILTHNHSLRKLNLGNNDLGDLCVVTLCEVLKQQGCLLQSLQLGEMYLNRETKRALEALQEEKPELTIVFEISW

IC90 (IL-1β, read-out: in vitro mouse whole blood IC90): 0.716 µM | pIC50 (read-out: Geo Av IC50, IL-1β): 7.03
SMILES: CO[C@@H]1COc2c(S(=O)(=O)NC(=O)Nc3c4c(cc5c3CCC5)CCC4)cnn2C1 [JT002]
